US20070173522A1, “4-(2-Phenylsulfanyl-phenyl)-1,2,3,6- tetrahydropyridine derivatives as serotonin reuptake inhibitors” (priority 2003, published 2007)

How the values were obtained:
[1] = target: T1, norepinephrine uptake (noradrenaline uptake into rat cortical synaptosomes) (Rattus norvegicus, UniProt Q63380); assay: Measurements of [3H]noradrenaline uptake into rat cortical synaptosomes; type: biochemical; conditions: result in words; test described in the examples section
T1 construct: Fresh cortex from male Wistar rats (125-225 g) are homogenized in 0.4M sucrose; from tissue; host or cells: synaptosomal preparation from fresh cortex of male Wistar rats
T1 sequence (Q63380 1-617): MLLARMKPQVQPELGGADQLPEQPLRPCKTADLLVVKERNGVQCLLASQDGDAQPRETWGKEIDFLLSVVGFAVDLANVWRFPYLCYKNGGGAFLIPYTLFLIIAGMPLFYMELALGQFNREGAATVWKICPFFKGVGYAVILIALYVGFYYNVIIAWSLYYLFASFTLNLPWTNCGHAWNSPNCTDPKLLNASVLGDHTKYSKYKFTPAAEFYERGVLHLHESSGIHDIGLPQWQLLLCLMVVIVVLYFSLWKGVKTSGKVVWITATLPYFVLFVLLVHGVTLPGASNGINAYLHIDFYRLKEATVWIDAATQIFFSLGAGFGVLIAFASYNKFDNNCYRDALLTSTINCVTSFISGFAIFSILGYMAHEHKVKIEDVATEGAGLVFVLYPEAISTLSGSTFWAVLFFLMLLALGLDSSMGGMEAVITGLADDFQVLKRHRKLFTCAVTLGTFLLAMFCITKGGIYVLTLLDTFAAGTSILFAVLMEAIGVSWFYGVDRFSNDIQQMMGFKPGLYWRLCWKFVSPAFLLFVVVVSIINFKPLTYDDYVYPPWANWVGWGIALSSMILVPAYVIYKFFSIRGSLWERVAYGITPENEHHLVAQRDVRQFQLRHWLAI
Protocol: Measurements of ^3H]Noradrenaline Uptake into Rat Cortical Synaptosomes.
Fresh cortex from male Wistar rats (125-225 g) are homogenized in 0.4M sucrose with a glass/teflon homogenizer. The homogenate is centrifuged at 600×g for 10 min at 4° C. The pellet is discarded and the supernatant is centrifuged at 20.000×g for 55 min. The final pellet is homogenized (20 sec) in this assay buffer (6 mg original tissue/mL=4 mg/well). Test compounds (or buffer) and 10 nM [^3H]-noradrenaline are added to deep 96 well plates and shaken briefly. Composition of assay buffer: 123 mM NaCl, 4.82 mM KCl, 0.973 mM CaCl2, 1.12 mM MgSO4, 12.66 mM Na2HPO4, 2.97 mM NaH2PO4, 0.162 mM EDTA, 10 mM glucose and 1 mM ascorbic acid. Buffer is oxygenated with 95% O2/5% CO2 for 10 min at 37° C. and pH is adjusted 7.4. The incubation is started by adding tissue to a final assay volume of 1 ml. After 15 min incubation with radioligand at 37° C., samples are filtered directly on Unifilter GF/C glass fiber filters (soaked for 1 hour in 0.1% polyethylenimine) under vacuum and immediately washed with 3×1 mL assay buffer. Non-specific uptake is determined using talsupram (10 μM final concentration). Duloxetine is included as reference in all experiments as dose-response curve.

[2] = target: T2, serotonin reuptake (5-HT uptake into rat cortical synaptosomes) (Rattus norvegicus, UniProt P31652); assay: Measurements of [3H]-5-HT uptake into rat cortical synaptosomes; type: biochemical; conditions: result in words; test described in the examples section
T2 construct: Whole brains from male Wistar rats (125-225 g), excluding cerebellum, are homogenized; from tissue; host or cells: synaptosomal preparation from whole brain (excluding cerebellum) of male Wistar rats
T2 sequence (P31652 whole entry): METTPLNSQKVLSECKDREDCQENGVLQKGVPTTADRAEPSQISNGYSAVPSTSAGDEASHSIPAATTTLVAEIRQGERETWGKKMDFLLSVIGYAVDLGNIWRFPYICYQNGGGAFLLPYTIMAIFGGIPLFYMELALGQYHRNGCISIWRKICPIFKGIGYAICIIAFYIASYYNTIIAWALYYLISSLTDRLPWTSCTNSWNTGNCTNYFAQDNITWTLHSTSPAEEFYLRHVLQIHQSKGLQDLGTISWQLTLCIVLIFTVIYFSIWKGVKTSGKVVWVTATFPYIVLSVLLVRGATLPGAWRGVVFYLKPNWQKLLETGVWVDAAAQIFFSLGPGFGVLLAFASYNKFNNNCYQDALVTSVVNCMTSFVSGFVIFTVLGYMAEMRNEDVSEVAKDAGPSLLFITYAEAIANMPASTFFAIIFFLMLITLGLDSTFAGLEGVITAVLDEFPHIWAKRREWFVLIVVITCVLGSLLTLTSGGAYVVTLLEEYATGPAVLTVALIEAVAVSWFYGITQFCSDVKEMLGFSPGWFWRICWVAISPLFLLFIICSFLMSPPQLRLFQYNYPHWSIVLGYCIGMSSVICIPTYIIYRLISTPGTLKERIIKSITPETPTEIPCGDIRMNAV
Protocol: Measurements of [^3]-5-HT Uptake into Rat Cortical Synaptosomes.
Whole brains from male Wistar rats (125-225 g), excluding cerebellum, are homogenized in 0.32 M sucrose supplemented with 1 mM nialamid with a glass/teflon homogenizer. The homogenate is centrifuged at 600×g for 10 mil at 4° C. The pellet is discarded and the supernatant is centrifuged at 20.000×g for 55 min. The final pellet is homogenized (20 sec) in this assay buffer (0.5 mg original tissue/well). Test compounds (or buffer) and 10 nM [^3H]-5-HT are added to 96 well plates and shaken briefly. Composition of assay buffer: 123 mM NaCl, 4.82 mM KCl, 0.973 mM CaCl2, 1.12 mM MgSO4, 12.66 mM Na2HPO4, 2.97 mM NaH2PO4, 0.162 mM EDTA, 10 mM glucose and 1 mM ascorbic acid. Buffer is oxygenated with 95% O2/5% CO2 for 10 min at 37° C. and pH is adjusted 7.4. The incubation is started by adding tissue to a final assay volume of 0.2 mL. After 15 min incubation with radioligand at 37° C., samples are filtered directly on Unifilter GF/C glass fiber filters (soaked for 1 hour in 0.1% polyethylenimine) under vacuum and immediately washed with 3×0.2 ml assay buffer. Non-specific uptake is determined using citalopram (10 μM final concentration). Citalopram is included as reference in all experiments as dose-response curve.

Structure (SMILES) | norepinephrine uptake inhibition [1] | serotonin reuptake inhibition [2]
Cc1cccc(Sc2ccccc2C2=CCNCC2)c1C [Compound 33, 4-[2-(2,3-Dimethyl-phenylsulfanyl)-phenyl]-1,2,3,6-tetrahydro-pyridine] | did not show norepinephrine uptake inhibition | did show serotonin reuptake inhibition
COc1ccc(Sc2ccc(C)cc2C2=CCNCC2)c(F)c1 [Compound 61, 4-[2-(2-Fluoro-4-methoxy-phenylsulfanyl)-5-methyl-phenyl]-1,2,3,6-tetrahydro-pyridine] | did not show norepinephrine uptake inhibition | did show serotonin reuptake inhibition
Cc1ccc(Sc2cccc(Cl)c2F)c(C2=CCNCC2)c1 [Compound 86] | did not show norepinephrine uptake inhibition | did show serotonin reuptake inhibition
Fc1cccc(Sc2ccccc2C2=CCNCC2)c1F [Compound 83, 4-[2-(2,3-Difluoro-phenylsulfanyl)-phenyl]-1,2,3,6-tetrahydro-pyridine] | did not show norepinephrine uptake inhibition | did show serotonin reuptake inhibition
Cc1ccc(Sc2ccccc2C2=CCNCC2)c(Cl)c1 [Compound 84, 4-[2-(2-Chloro-4-methyl-phenylsulfanyl)-phenyl]-1,2,3,6-tetrahydro-pyridine] | did not show norepinephrine uptake inhibition | did show serotonin reuptake inhibition
Cc1ccc(Sc2ccc(C)c(F)c2)c(C2=CCNCC2)c1 [Compound 128, 4-[2-(3-Fluoro-4-methyl-phenylsulfanyl)-5-methyl-phenyl]-1,2,3,6-tetrahydro-pyridine] | did not show norepinephrine uptake inhibition | did show serotonin reuptake inhibition
COc1ccc(Sc2ccccc2C2=CCNCC2)c(C)c1 [Compound 37, 4-[2-(4-Methoxy-2-methyl-phenylsulfanyl)-phenyl]-1,2,3,6-tetrahydro-pyridine] | did not show norepinephrine uptake inhibition | did show serotonin reuptake inhibition
Cc1ccc(Sc2ccc(C)cc2C2=CCNCC2)c(F)c1 [Compound 52, 4-[2-(2-Fluoro-4-methyl-phenylsulfanyl)-5-methyl-phenyl]-1,2,3,6-tetrahydro-pyridine] | did not show norepinephrine uptake inhibition | did show serotonin reuptake inhibition
Cc1c(F)cccc1Sc1ccccc1C1=CCNCC1 [Compound 87, 4-[2-(3-Fluoro-2-methyl-phenylsulfanyl)-phenyl]-1,2,3,6-tetrahydro-pyridine] | did not show norepinephrine uptake inhibition | did show serotonin reuptake inhibition
Cc1ccc(Sc2cccc(F)c2C)c(C2=CCNCC2)c1 [Compound 89, 4-[2-(3-Fluoro-2-methyl-phenylsulfanyl)-5-methyl-phenyl]-1,2,3,6-tetrahydro-pyridine] | did not show norepinephrine uptake inhibition | did show serotonin reuptake inhibition
